System: acute allograft rejection
Assay: murine cardiac ear pinna model of acute allograft rejection (non-vascularized cardiac tissue transplantation)
Assay type: in vivo
Settings: monotherapy; for Graft Survival, Mean ± Std Dev (mean survival days): day 0 to 17, BALB/C neonatal hearts into C3H/HeN ear pinna, assessed day 6 to 18
Excerpt: Methods: A rapid, facile 2-week murine bioassay of non-vascularized cardiac tissue transplantation,t he murine cardiac ear pinna model of acute allograft rejection, was used to evaluate the dose-response relationship of immunosuppressive drugs on allograft rejection. In this model, donor BALB/C (H2^d) neonatal hearts are transplanted into recipient C3H/HeN (H2^k) ear pinna pouches without vacular anastomoses. Survivinghearts are revascularized and usually resume beating on day 3 to 6. Untreated allografts failed prior to day 12 (MST = 10.5 + 0.9d, n=13). Isografts survived indefinitely. All compounds are given on day 0 to 17 COMPOUND P [(+)-2-[3,4-dihydro(3S,4R)-4-hydroxy-3-(4-phenyl-phenylmethyl)-7-(2H,1-benzopyran)]cyclopentane carboxylic acid] was given orally in 0.5% Methylcellulose. Grafts were assessed by visual examination for contraction on alternate days (from 6 to 18) and graft survival was defined as the post-transplant day on which contractions cease. Efficacy data from day 6 to 18 is presented as mean survival days (+SD) and was analyzed by Log Rank Analysis. Graft survival values were determined at day 18. Any graft surviving at day 18 was censored for statistical purposes.

With `O=C(O)C1CCCC1c1ccc2c(c1)OC[C@H](Cc1ccc(-c3ccccc3)cc1)[C@H]2O` (single isomer, unassigned; (+)) [COMPOUND P] the “efficacy as a single agent in acute rejection (graft survival on day 18)” value (highest dose, 300 mg/kg d) was “significant (p<0.01)”, the “efficacy as a single agent in acute rejection (graft survival on day 18)” value (lower doses tested (200, 100, and 30 mg/kg)) was “not at the lower doses tested” and the “Graft Survival, Mean ± Std Dev (mean survival days)” value (“Graft Survival, Mean ± Std Dev” for short) (30 mg/kg/d orally in 0.5% Methylcellulose) was 11.0 ± 1.1 days. For the same compound, the “Graft Survival, Mean ± Std Dev” value (100 mg/kg/d orally in 0.5% Methylcellulose) was 10.3 ± 0.7 days, the “Graft Survival, Mean ± Std Dev” value (200 mg/kg/d orally in 0.5% Methylcellulose) was 10.3 ± 0.7 days and the “Graft Survival, Mean ± Std Dev” value (300 mg/kg/d orally in 0.5% Methylcellulose) was 11.8 ± 1.1 days.

— patent EP0963755A2, “Use of benzopyranes for preventing allograft rejection” (Pfizer Products Inc., priority 1998, dated 1999)
